Test results from US11982676B2, “Near-infrared fluorescent nanoprobe” (VALORISATION-RECHERCHE, LIMITED PARTNERSHIP, priority 2021, dated 2024).

What was measured:
Daphnia pulex = assay: Incubation of Daphnia pulex with samples in FLAMES medium, evaluation of potential toxicity; assay type: in vivo
Source text: The impressive robustness and fading-free properties of the Dyes@BNNT are appealing for bio-imaging applications. FIG. 4 presents an example of the use of nanohybrids to make optical nanoprobes for imaging living Daphnia pulex microorganisms in water—see bright-field image in FIG. 4a #1. Daphnia (also called water fleas) are common planktonic crustaceans, which find use as chemical sensors in ecotoxicology studies, thanks to their high sensitivity to water quality. To acquire the bio-images (FIG. 4a #2-5), we first solubilized the Dyes@BNNTs in a water-based living medium called FLAMES, using a poly (ethylene) glycol derivative (mPEG-DSPE) (Supplementary Section 2.9). […] Living daphniids were imaged under a fluorescence microscope equipped with UBG filter and a 10× objective. […] This natural blue-green signal originates from the auto-fluorescence of the tissues in FLAMES through the UBG filter, which disappears after death or after few minutes only of photobleaching. […]
Before any experiment, many adult individuals of Daphnia pulex (clones DISP 1312) were kept at 22° C. in FLAMES with algae for 4 days, allowing a new reproducing cycle. Then, the specimens were transferred to a FLAMES medium algae-free and maintained this condition for at least 1 day to clean the digestive system and limit the fluorescence from the algae themselves during the images/time lapse acquisition—FIG. 8. […]

[1] = Chemical stability on Si/SiO2: oxygen plasma, thermal annealing, piranha; assay type: physicochemical; details: oxygen plasma of 100 W for 10 minutes
Description: The chemical stability of the nanohybrids is tested using individualized 6T@BNNT bundles on Si/SiO2 exposed to an oxygen plasma of 100 W for 10 minutes. […] The enhanced stability of the encapsulated dyes has also been observed upon thermal annealing up to 350° C. in air and using piranha solutions (not shown). […] The chemical and physical stability experiments have been repeated on a number of Dyes@BNNT nanohybrids of different lengths deposited on substrates or dispersed in a solution (See e.g. Supplementary Figs. 10 and 11). All of the results lead us to the same conclusion, which underlines the tremendous gain in stability inferred by the confinement of the 1D cavity of BNNTs.

HuH6 cells = assay: Two-photon photobleaching test and excitation profile in fixed HuH6 cells; design: species or system human; details: λex=860 nm, 30 mins, 400 Hz, laser output power 2.55 W
Description: To further assess a possible toxicity of the Dyes@BNNT, we performed an additional set of experiments at the scale of a cell. We incubated 10 μg·mL^−1 of a PEG-6T@BNNT solution for 24 hours with human hepatoblastoma HuH6 cells, which is one of the model cell lines used for toxicology studies. […] FIGS. 5a and 5c show fluorescence spectra consistent with DiA (green) and PEG-6T@BNNT (red) separated in the regions 2 and 1, respectively. […] The fluorescence of both the DiA and PEG-6T@BNNT, as a function of the excitation wavelength between 740 nm and 1020 nm, is shown in FIG. 5d. The resonance maximum of DiA is measured at 880 nm, which is distinct from the resonance of the PEG-6T@BNNT located at ˜740 nm, a position similar to that of functionalized polythiophene. […] To directly compare exposed and non-exposed cells, FIG. 5b presents a two-photon hyperspectral fluorescence image taken in a field of view slightly larger than the photobleaching test area. […]
3.2 Characterization by Raman and Photoluminescence. […] The equipment of the different setups is summarized in Table S2 and are described as follows: • The Luminescence images and photobleaching experiments, as presented in FIG. 3, main text, were performed at λex=532 nm using the Raman/PL mapping system RIMA™ (Photon etc.). […]

| change in PL after oxygen plasma [1] | fluorescence after two-photon photobleaching test (HuH6 cells) | Compound | state of daphniids after first incubation test (Daphnia pulex; free 6T in FLAMES, incubation time of only few minutes) | time after which individuals died (Daphnia pulex; group B, incubated directly with 6T at 100 ug/mL) [h] |
| --- | --- | --- | --- | --- |
| completely vanished | – | c1csc(-c2ccc(-c3ccc(-c4ccc(-c5ccc(-c6cccs6)s5)s4)s3)s2)c1 [6T, α-sexithiophene] | found dead | 20 |
| – | significantly photo-bleached | CCCCC/C=C\C/C=C\CCCCCCCCN(CCCCCCCC/C=C\C/C=C\CCCCC)c1ccc(C=Cc2cc[n+](C)cc2)cc1.O=S(=O)([O-])c1ccc(Cl)cc1 [DiA] | – | – |
